Data: patent US9487470B2, “4-((substituted phenyl) difluoromethyl) phenoxy carboxylic acid derivative, and preparation method and uses thereof” (Zhejiang Hisun Pharmaceutical Co., Ltd., priority 2012, dated 2016)

Assays:
[1] = tested on: hyperlipoidemia model of Goldenhamsters (blood plasma TC, TG, HDL-C, LDL-C); assay: Pharmacological test group 1: effects on blood lipid levels of Goldenhamsters in a hyperlipoidemia model; type: in vivo; details: for HDL-C, after administration / LDL-C, after administration / TC, after administration / TG, after administration: 40 mg/kg intragastric, 1 week, high-lipid feed continued, blood plasma, x±s, asterisks = P vs before administration
Description: Animals: 134 male Goldenhamsters, aged 8 weeks, body weight 80-100 g, provided by Vital River Laboratories, Beijing. […] Kits: The kits for total cholesterol (TC), triglyceride (TG), and high density lipoprotein cholesterol (HDL-C) were provided by SYSMEX, and the kits for low density lipoprotein cholesterol (LDL-C) were provided by Shanghai Kehua Bio-engineering Co., Ltd. Apparatus: SYSMEX Automatic Biochemistry Analyzer, Bechman centrifuge, Setoris balance. The animals were acclimatized and fed for 1 week, ad lib, light cycle was 10 h/14 h, and then feeds with high lipid content were fed to the animals (formulation: 0.3% cholesterol, 20% palm oil, and 79.7% basic feeds). The animals were fed for 10 days, and were fasted at 4:00 pm on the 10th day (fasted for 16 h). On the 11th day, the animals were anaesthetized with ethyl ether, weighted, and then 0.5 ml blood was collected from vena orbitalis posterior. The blood was anticoagulated with heparin, and was centrifugated at 5000 rpm for 10 min. The blood plasma was taken, and the levels of TC, TG, HDL-C, and LDL-C in blood plasma were determined using automatic biochemistry analyzer. The animals were acclimatized and fed for 1 week, ad lib, light cycle was 10 h/14 h, and then feeds with high lipid content were fed to the animals (formulation: 0.3% cholesterol, 20% palm oil, and 79.7% basic feeds). The animals were fed for 2 weeks, and were fasted at 4:00 pm on the […] (fasted for 16 h). On the 22nd day, the animals were anaesthetized with ethyl ether, weighted, and then 0.5 ml blood was collected from vena orbitalis posterior. The blood was anticoagulated with heparin, and was centrifugated at 5000 rpm for 10 min. The blood plasma was taken, and the levels of TC, TG, HDL-C, and LDL-C in blood plasma were determined using automatic biochemistry analyzer. […] During the administration, feeds with high lipid content were continuously fed to the animals. The animals were fed for 1 week, and were fasted at 4:00 pm on the 7th day. On the 8th day, the animals were anaesthetized with ethyl ether, weighted, and then 0.5 ml blood was collected from vena orbitalis posterior. The blood was anticoagulated with heparin, and was centrifugated at 5000 rpm for 10 min. The blood plasma was taken, and the levels of TC, TG, HDL-C, and LDL-C in blood plasma were determined using automatic biochemistry analyzer. The results were represented by x±s, and t test was employed for comparing the results obtained before and after administration.

[2] = tested on: hyperlipoidemia model of Goldenhamsters (blood plasma TC, HDL-C, LDL-C); assay: Pharmacological test group 2: effects on blood lipid levels of Goldenhamsters in hyperlipoidemia model; type: in vivo; details: for blood lipid-regulating effects (conclusion from table 3) / therapeutic effect compared with fenofibrate (conclusion from table 3) / effect on HDL-C, in comparison with the results before administration (in words) / effect on LDL-C, in comparison with the results before administration (in words) / effect on TC, in comparison with the results before administration (in words): 40 mg/kg; for HDL-C, after administration / LDL-C, after administration / TC, after administration: 40 mg/kg intragastric, 1 week, high-lipid feed continued, asterisks = P vs before administration; for HDL-C, after administration / LDL-C, after administration / TC, after administration / HDL-C, before administration / LDL-C, before administration / TC, before administration: blood plasma, x±s; for therapeutic effect compared with fenofibrate (conclusion from table 3): fenofibrate 40 mg/kg; for effect on HDL-C, in comparison with the results before administration (in words) / effect on LDL-C, in comparison with the results before administration (in words) / effect on TC, in comparison with the results before administration (in words): t test after vs before administration; for HDL-C, before administration / LDL-C, before administration / TC, before administration: baseline of the group before administration, high-lipid feed 2 weeks, 6 animals
Description: Animals: 120 male Goldenhamsters, aged 8 weeks, body weight 80-100 g, provided by Vital River Laboratories, Beijing.
Kits: The kits for total cholesterol (TC) and high density lipoprotein cholesterol (HDL-C) were provided by SYSMEX, and the kits for low density lipoprotein cholesterol (LDL-C) were provided by Shanghai Kehua Bio-engineering Co., Ltd.
Apparatus: SYSMEX Automatic Biochemistry Analyzer, Bechman centrifuge, Setoris balance.
The animals were acclimatized and fed for 1 week, ad lib, light cycle was 10 h/14 h, and then feeds with high lipid content were fed to the animals (formulation: 0.3% cholesterol, 20% palm oil, and 79.7% basic feeds). The animals were fed for 2 weeks, and were fasted at 4:00 pm on the 14th day (fasted for 16 h). On the 15th day, the animals were anaesthetized with ethyl ether, weighted, and then 0.5 ml blood was collected from vena orbitalis posterior. The blood was anticoagulated with heparin, and was centrifugated at 5000 rpm for 10 min. The blood plasma was taken, and the levels of TC, HDL-C, and LDL-C in blood plasma were determined using automatic biochemistry analyzer.
During the administration, feeds with high lipid content were continuously fed to the animals. The animals were fed for 1 week, and were fasted at 4:00 pm on the 7th day. On the 8th day, the animals were anaesthetized with ethyl ether, weighted, and then 0.5 ml blood was collected from vena orbitalis posterior. The blood was anticoagulated with heparin, and was centrifugated at 5000 rpm for 10 min. The blood plasma was taken, and the levels of TC, HDL-C, and LDL-C in blood plasma were determined using automatic biochemistry analyzer.
The results were represented by x±s, and t test was employed for comparing the results obtained before and after administration.

[3] = Solubility in water (remark on the test drugs); type: physicochemical; details: formulated with 20% solutol
[4] = 40 mg/kg, t test after vs before administration

Row | Structure (SMILES) | regulating effects on the levels of blood lipid (conclusion from table 2) ([1]; 40 mg/kg) | HDL-C, after administration [1] | LDL-C, after administration [1] | TC, after administration [1] | TG, after administration [1] | effect on LDL-C, in comparison with the results before administration (in words) [1, 4] | effect on TG, in comparison with the results before administration (in words) [1, 4] | blood lipid-regulating effects (conclusion from table 3) [2] | HDL-C, after administration [2] | LDL-C, after administration [2] | TC, after administration [2] | therapeutic effect compared with fenofibrate (conclusion from table 3) [2] | effect on HDL-C, in comparison with the results before administration (in words) [2] | effect on LDL-C, in comparison with the results before administration (in words) [2] | effect on TC, in comparison with the results before administration (in words) [2] | HDL-C, before administration [2] | LDL-C, before administration [2] | TC, before administration [2] | solubility in water [3] | further results
1 | CC(C)OC(=O)C(C)(C)Oc1ccc(C(F)(F)c2ccccc2Cl)cc1 [HS003-014, Isopropyl 2-(4-((2-chlorophenyl)difluoromethyl)phenoxy)-2-methylpropionate] | tend to the effects of significantly decreasing TG, TC, and LDL-C | 3.55 ± 0.4 | 0.75 ± 0.17 | 8.20 ± 0.91 | 0.92 ± 0.25 | significantly decreases | significantly decreases | excellent blood lipid-regulating effects | 1.82 ± 0.18 | 1.39 ± 0.51 | 9.51 ± 1 | outstanding therapeutic effects, and are superior to fenofibrate | increases | significantly decreases | significantly decreases | 1.57 ± 0.16 | 3.36 ± 1.19 | 13.97 ± 2.27 | insoluble | therapeutic effect compared with fenofibrate (conclusion from table 2) ([1]; 40 mg/kg, fenofibrate 40 mg/kg): outstanding therapeutical effects, and is significantly superior to fenofibrate; effect on TC, in comparison with the results before administration (in words) [1, 4]: significantly decreases
2 | Cc1ccccc1C(F)(F)c1ccc(OC(C)(C)C(=O)OC(C)C)cc1 [HS003-015, Isopropyl 2-(4-((2-methylphenyl)difluoromethyl)phenoxy)-2-methylpropionate] |  |  |  |  |  |  |  |  | 1.77 ± 0.18 | 2.26 ± 1.03 | 15.3 ± 3.74 |  | significantly increases |  |  | 1.54 ± 0.07 | 3.14 ± 1.22 | 13.99 ± 2.3 | insoluble | 
3 | CC(C)OC(=O)C(C)(C)Oc1ccc(C(F)(F)c2cccc(Cl)c2)cc1 [HS003-011, Isopropyl 2-(4-((3-chlorophenyl)difluoromethyl)phenoxy)-2-methylpropionate] |  |  |  |  |  |  |  | excellent blood lipid-regulating effects | 1.93 ± 0.91 | 2.21 ± 0.91 | 11.94 ± 2.71 |  | increase | significantly decreases |  | 1.46 ± 0.16 | 4.02 ± 1.34 | 13.91 ± 2.34 | insoluble | 
4 | Cc1cc(OC(C)(C)C(=O)OC(C)C)ccc1C(F)(F)c1ccc(Cl)cc1 [HS003-019, Isopropyl 2-(4-((4-chlorophenyl)difluoromethyl)-3-methylphenoxy)-2-methylpropionate] |  |  |  |  |  |  |  | excellent blood lipid-regulating effects | 1.84 ± 0.21 | 1.83 ± 0.56 | 10.62 ± 1.02 | outstanding therapeutic effects, and are superior to fenofibrate |  | significantly decreases | significantly decreases | 1.67 ± 0.22 | 3.12 ± 1.47 | 13.99 ± 2.28 | insoluble | 
5 | CC(C)OC(=O)C(C)(C)Oc1ccc(C(F)(F)c2ccc(Cl)cc2)cc1Cl [HS003-020, Isopropyl 2-(4-((4-chlorophenyl)difluoromethyl)-2-chlorophenoxy)-2-methylpropionate] | tend to the effects of significantly decreasing TG, TC, and LDL-C | 4.18 ± 0.07 | 1.0 ± 0.35 | 8.88 ± 0.44 | 1.19 ± 0.49 | significantly decreases | significantly decreases | excellent blood lipid-regulating effects | 1.84 ± 0.14 | 1.42 ± 0.39 | 10.34 ± 1.17 | outstanding therapeutic effects, and are superior to fenofibrate | significantly increases | significantly decreases | significantly decreases | 1.45 ± 0.2 | 3.94 ± 1.41 | 14.06 ± 2.17 | insoluble | effect on HDL-C, in comparison with the results before administration (in words) [1, 4]: increase
